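These data come from cells grown in 96-well plates and exposed to compound for 48 hours at five concentrations. TGI denotes the concentration required for complete inhibition of growth.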
What was measured:
Assay in all cases: DTP human tumour cell line panel, 48 h
M19-MEL melanoma = tested on: M19-MEL melanoma
HT29 colon = tested on: HT29 colon
LXFL 529 NSCLC = tested on: LXFL 529 NSCLC
NCI-H226 lung = tested on: NCI-H226 lung
SF-295 CNS = tested on: SF-295 CNS
HOP-18 NSCLC = tested on: HOP-18 NSCLC
A549 NSCLC = tested on: A549 NSCLC
DLD-1 colon = tested on: DLD-1 colon
DMS 273 small cell lung = tested on: DMS 273 small cell lung
DMS 114 small cell lung = tested on: DMS 114 small cell lung
KM20L2 colon = tested on: KM20L2 colon
SNB-78 CNS = tested on: SNB-78 CNS
XF 498 CNS = tested on: XF 498 CNS
DU-145 prostate = tested on: DU-145 prostate
MDA-MB-231 breast = tested on: MDA-MB-231 breast

Compound | TGI (M19-MEL melanoma) | TGI (HT29 colon) | TGI (LXFL 529 NSCLC) | TGI (NCI-H226 lung) | TGI (SF-295 CNS) | TGI (HOP-18 NSCLC) | TGI (A549 NSCLC) | TGI (DLD-1 colon) | TGI (DMS 273 small cell lung) | TGI (DMS 114 small cell lung) | TGI (KM20L2 colon) | TGI (SNB-78 CNS) | TGI (XF 498 CNS) | TGI (DU-145 prostate) | TGI (MDA-MB-231 breast)
Cc1ccc(N2C(=O)/C(=c3\s/c(=C(/N)O)c(=N)n3-c3ccccc3)SC2=S)cc1 | > 100 µM | > 100 µM | > 100 µM | > 100 µM | > 100 µM | > 100 µM | > 100 µM | > 100 µM |  |  |  |  |  |  | 
CCCCCCCCCCCCCCCCCC(=O)NCCCNCCCNC(=O)CCCCCCCCCCCCCCCCC | > 100 µM | > 100 µM | > 100 µM | > 100 µM | > 100 µM | > 100 µM | > 100 µM | > 100 µM | > 100 µM | > 100 µM | > 100 µM |  |  |  | 
Cc1[nH]n(-c2ccccc2)c(=S)c1C(=O)c1ccccc1 |  |  | 37.2 µM |  | > 100 µM |  | > 100 µM | 60.9 µM | > 100 µM | 99.1 µM | > 100 µM | 64.8 µM | > 100 µM |  | 
C=C1C(=O)C=C2C=C3C(=O)C(C)(C)C[C@]3(O)C12C (stereo partly drawn) | 11.3 µM | 11.1 µM | 2.64 µM | 45.6 µM | 45.7 µM |  | 40.4 µM |  | 14 µM | 3.61 µM |  | 21 µM | 3.56 µM | 33.9 µM | 7.59 µM
CCOc1ccc(N=Cc2cc(OC)c(OC)c(OC)c2)cc1 | > 100 µM | > 100 µM | > 100 µM |  | > 100 µM | > 100 µM | > 100 µM | > 100 µM | > 100 µM | > 100 µM | > 100 µM | > 100 µM | > 100 µM |  | 
Cc1c2n(c3ccccc13)CC1C2N(C)OC1(C)C (stereo not drawn) | > 100 µM | > 100 µM |  | > 100 µM | > 100 µM |  | > 100 µM | > 100 µM | > 100 µM | > 100 µM | > 100 µM | > 100 µM | > 100 µM |  | 
CCC(C)(C)NC1=C(NC(C)=O)C(=O)c2ccccc2C1=O | 23.7 µM | > 75 µM | > 75 µM | > 75 µM | > 75 µM |  | > 75 µM | > 75 µM | > 75 µM |  | > 75 µM | > 75 µM | 40.2 µM |  | 
CCN(CC)CC(C)(C)C(=O)/C=C/c1ccc(C)cc1 | 79.6 µM | 12.3 µM | 20.1 µM |  | 26.1 µM | 23.6 µM | 42.7 µM | 32.4 µM |  |  | 13.3 µM | 26.3 µM | 20.4 µM |  | 
c1ccc2cc3n[se]nc3cc2c1 |  | > 100 µM | > 100 µM |  | > 100 µM |  | > 100 µM | > 100 µM | > 100 µM | > 100 µM | > 100 µM | > 100 µM |  |  | 
Cc1ccc2c(c1)NC(=O)C(N=[N+]=[N-])(c1ccccc1)C2=O (stereo not drawn) | 40 µM | 43.9 µM | 66.1 µM |  | 78.1 µM | 88.3 µM | > 100 µM | > 100 µM | 28.6 µM | 81.1 µM | 74.6 µM | 64.3 µM | 60.2 µM |  | 
Cc1ccc(S(=O)(=O)C2=c3ncccc3=C3C(=O)c4ccccc4C(=O)C32)cc1 (stereo not drawn) | > 100 µM | > 100 µM | > 100 µM | > 100 µM | > 100 µM | > 100 µM | > 100 µM | > 100 µM | > 100 µM | > 100 µM |  | > 100 µM |  | > 100 µM | > 100 µM
C(/COc1cccnc1)=N\NC1=NCCN1 | > 100 µM | > 100 µM | > 100 µM | > 100 µM | > 100 µM | > 100 µM | > 100 µM | > 100 µM | > 100 µM | > 100 µM | > 100 µM | > 100 µM | > 100 µM |  | 
Nc1nc(=O)n(C2OC(CO)C(O)C2O)cc1F (stereo not drawn) | > 100 µM | > 100 µM |  | > 100 µM | > 100 µM | > 100 µM | > 100 µM | > 100 µM | > 100 µM | 3.26 µM | > 100 µM | > 100 µM | > 100 µM |  | 
